According to US11123337B2, “4-methylsulfonyl-substituted piperidine urea compounds” (MYOKARDIA, INC., priority 2015, dated 2021):

The compounds below were run against bovine cardiac myosin (Bos taurus, UniProt Q9BE39) (assay: Myosin activation assay (PK/LDH-coupled ATPase, bovine cardiac myofibrils)). Conditions: AC20 = concentration at which total response is increased by twenty percent.
Format: biochemical
Method in brief: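 Values are the concentrations raising the ATPase rate by 20% or 50% over DMSO, from 10-point dose responses fitted with four parameters. Rate is NADH loss at 340 nm via PK/LDH coupling, read 15 min at room temperature, in pH 6.8 PIPES with 50 μM ATP. Bovine cardiac myofibrils were held at pCa ~6 or pCa 10.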

Sequence of bovine cardiac myosin (Q9BE39 whole entry): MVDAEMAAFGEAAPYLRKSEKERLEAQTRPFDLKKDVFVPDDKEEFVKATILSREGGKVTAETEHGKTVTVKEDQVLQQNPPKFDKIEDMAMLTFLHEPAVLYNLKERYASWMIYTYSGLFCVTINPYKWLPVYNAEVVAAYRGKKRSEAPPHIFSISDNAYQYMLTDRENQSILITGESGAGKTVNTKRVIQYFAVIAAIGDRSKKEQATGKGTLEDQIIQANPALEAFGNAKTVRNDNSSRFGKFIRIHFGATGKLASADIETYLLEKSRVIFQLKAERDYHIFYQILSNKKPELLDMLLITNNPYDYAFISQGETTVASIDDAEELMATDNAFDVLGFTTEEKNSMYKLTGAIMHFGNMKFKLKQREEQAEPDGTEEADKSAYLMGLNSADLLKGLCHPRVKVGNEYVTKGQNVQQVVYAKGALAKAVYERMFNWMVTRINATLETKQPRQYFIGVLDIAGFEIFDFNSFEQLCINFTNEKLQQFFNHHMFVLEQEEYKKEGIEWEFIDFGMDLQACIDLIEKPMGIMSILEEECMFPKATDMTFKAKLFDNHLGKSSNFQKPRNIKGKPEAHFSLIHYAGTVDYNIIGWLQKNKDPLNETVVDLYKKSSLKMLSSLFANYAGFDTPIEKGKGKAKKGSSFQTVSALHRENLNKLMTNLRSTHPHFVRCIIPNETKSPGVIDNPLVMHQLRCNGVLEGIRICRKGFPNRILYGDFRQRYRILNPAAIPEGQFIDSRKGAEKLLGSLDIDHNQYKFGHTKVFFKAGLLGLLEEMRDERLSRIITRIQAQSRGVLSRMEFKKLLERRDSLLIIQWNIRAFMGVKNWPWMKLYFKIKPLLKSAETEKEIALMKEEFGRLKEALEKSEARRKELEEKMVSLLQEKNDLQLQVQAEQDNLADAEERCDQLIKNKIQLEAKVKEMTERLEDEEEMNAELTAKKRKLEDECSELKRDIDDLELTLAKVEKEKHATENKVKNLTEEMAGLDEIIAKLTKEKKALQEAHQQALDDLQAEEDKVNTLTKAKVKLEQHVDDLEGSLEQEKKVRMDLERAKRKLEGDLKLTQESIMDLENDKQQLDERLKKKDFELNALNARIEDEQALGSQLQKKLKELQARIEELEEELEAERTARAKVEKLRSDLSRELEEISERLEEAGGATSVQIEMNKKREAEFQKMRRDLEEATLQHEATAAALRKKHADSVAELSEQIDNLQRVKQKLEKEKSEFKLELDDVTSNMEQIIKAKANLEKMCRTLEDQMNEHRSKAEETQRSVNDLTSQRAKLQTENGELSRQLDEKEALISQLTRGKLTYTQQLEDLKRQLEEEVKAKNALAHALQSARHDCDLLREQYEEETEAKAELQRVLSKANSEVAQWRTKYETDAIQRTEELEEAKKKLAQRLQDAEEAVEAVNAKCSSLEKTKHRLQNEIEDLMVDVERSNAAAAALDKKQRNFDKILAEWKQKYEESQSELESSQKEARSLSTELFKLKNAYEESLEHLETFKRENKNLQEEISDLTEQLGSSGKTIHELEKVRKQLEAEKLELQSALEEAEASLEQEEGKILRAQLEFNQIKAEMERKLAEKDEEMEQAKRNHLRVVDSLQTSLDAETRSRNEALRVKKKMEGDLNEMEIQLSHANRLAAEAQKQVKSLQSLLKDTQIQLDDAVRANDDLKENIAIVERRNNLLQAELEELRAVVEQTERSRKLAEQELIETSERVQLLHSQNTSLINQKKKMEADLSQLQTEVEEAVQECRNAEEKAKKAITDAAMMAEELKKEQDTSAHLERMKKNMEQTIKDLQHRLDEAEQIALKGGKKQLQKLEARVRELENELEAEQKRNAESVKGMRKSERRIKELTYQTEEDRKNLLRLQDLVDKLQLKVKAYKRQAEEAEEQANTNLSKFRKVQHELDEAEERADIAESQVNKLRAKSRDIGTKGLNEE
Sequence of bovine cardiac myosin (P85100 whole entry partner): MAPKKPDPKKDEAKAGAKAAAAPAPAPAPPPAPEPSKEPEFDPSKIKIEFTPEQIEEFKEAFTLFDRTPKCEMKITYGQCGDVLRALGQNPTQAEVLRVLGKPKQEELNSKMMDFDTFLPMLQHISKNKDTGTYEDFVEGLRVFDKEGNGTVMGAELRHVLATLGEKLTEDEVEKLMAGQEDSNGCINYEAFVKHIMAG
Sequence of bovine cardiac myosin (Q3SZE5 whole entry partner): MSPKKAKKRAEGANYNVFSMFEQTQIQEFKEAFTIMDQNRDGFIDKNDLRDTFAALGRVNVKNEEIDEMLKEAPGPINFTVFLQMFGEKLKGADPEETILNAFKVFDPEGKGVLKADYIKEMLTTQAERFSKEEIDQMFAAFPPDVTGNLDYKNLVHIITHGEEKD

| SMILES | Myosin Activation (AC20) |
| --- | --- |
| C[C@](F)(C1CCN(C(=O)Nc2ccon2)CC1)S(=O)(=O)c1ccc(C(F)(F)F)nc1 [Compound 310, (R)-4-(1-fluoro-1-((6-(trifluoromethyl)pyridin-3-yl)sulfonyl)ethyl)-N-(isoxazol-3-yl)piperidine-1-carboxamide] | ++ (++ represents myosin activation value AC20 from 2 μM-5 μM) |
| Cn1cc(S(=O)(=O)C(F)(F)C2CCN(C(=O)Nc3ccc(F)nc3)CC2)c(C(F)F)n1 [Compound 81, 4-(((3-(difluoromethyl)-1-methyl-1H-pyrazol-4-yl)sulfonyl)difluoromethyl)-N-(6-fluoropyridin-3-yl)piperidine-1-carboxamide] | + (+ represents myosin activation value AC20 > 5 μM) |
| O=C(Nc1ccnnc1)N1CCC(C(F)(F)S(=O)(=O)c2ccccc2CO)CC1 [Compound 25, 4-(Difluoro((2-(hydroxymethyl)phenyl)sulfonyl)methyl)-N-(pyridazin-4-yl)piperidine-1-carboxamide] | ++ (++ represents myosin activation value AC20 from 2 μM-5 μM) |
| C[C@](F)(C1CCN(C(=O)Nc2ccc(C#N)nc2)CC1)S(=O)(=O)c1cccc(F)c1 [Compound 292, (R)-N-(6-cyanopyridin-3-yl)-4-(1-fluoro-1-((3-fluorophenyl)sulfonyl)ethyl)piperidine-1-carboxamide] | ++ (++ represents myosin activation value AC20 from 2 μM-5 μM) |
| Cc1ccccc1S(=O)(=O)C1(C2CCN(C(=O)Nc3ccncc3)CC2)CC1 [Compound 202, N-(pyridin-4-yl)-4-(1-(o-tolylsulfonyl)cyclopropyl)piperidine-1-carboxamide] | +++ (+++ represents myosin activation value AC20 < 2 μM) |
| CN(C(=O)N1CCC(C(C)(C)S(=O)(=O)c2cccc(F)c2)CC1)c1ccncc1 [Compound 219, 4-(2-((3-fluorophenyl)sulfonyl)propan-2-yl)-N-methyl-N-(pyridin-4-yl)piperidine-1-carboxamide] | + (+ represents myosin activation value AC20 > 5 μM) |
| Cn1nc(C(F)(F)F)cc1S(=O)(=O)C(C)(F)C1CCN(C(=O)Nc2ccon2)CC1 (stereo not drawn) [Compound 249, 4-(1-fluoro-1-((1-methyl-3-(trifluoromethyl)-1H-pyrazol-5-yl)sulfonyl)ethyl)-N-(isoxazol-3-yl)piperidine-1-carboxamide] | ++ (++ represents myosin activation value AC20 from 2 μM-5 μM) |
| Cn1nc(C2CC2)cc1S(=O)(=O)C(F)(F)C1CCN(C(=O)Nc2ccnnc2)CC1 [Compound 24, 4-(((3-Cyclopropyl-1-methyl-1H-pyrazol-5-yl)sulfonyl)difluoromethyl)-N-(pyridazin-4-yl)piperidine-1-carboxamide] | ++ (++ represents myosin activation value AC20 from 2 μM-5 μM) |
| Cn1nc(C(F)(F)F)cc1S(=O)(=O)[C@](C)(F)C1CCN(C(=O)Nc2ccon2)CC1 [Compound 229] | + (+ represents myosin activation value AC20 > 5 μM) |
| COc1ccccc1S(=O)(=O)C(C)(F)C1CCN(C(=O)Nc2ccnnc2)CC1 (stereo not drawn) [Compound 273, 4-(1-fluoro-1-((2-methoxyphenyl)sulfonyl)ethyl)-N-(pyridazin-4-yl)piperidine-1-carboxamide] | ++ (++ represents myosin activation value AC20 from 2 μM-5 μM) |
| C[C@H](O)c1cc(NC(=O)N2CCC(C(F)(F)S(=O)(=O)c3cccc(F)c3)CC2)ccn1 [Compound 97, (S)-4-(difluoro((3-fluorophenyl)sulfonyl)methyl)-N-(2-(1-hydroxyethyl)pyridin-4-yl)piperidine-1-carboxamide] | + (+ represents myosin activation value AC20 > 5 μM) |
| Cc1cc(NC(=O)N2CCC([C@](C)(F)S(=O)(=O)c3cc(C(F)(F)F)nn3C)CC2)ccn1 [Compound 232, (R)-4-(1-fluoro-1-((1-methyl-3-(trifluoromethyl)-1H-pyrazol-5-yl)sulfonyl)ethyl)-N-(2-methylpyridin-4-yl)piperidine-1-carboxamide] | +++ (+++ represents myosin activation value AC20 < 2 μM) |
| Cn1cc(S(=O)(=O)C(C)(C)C2CCN(C(=O)Nc3ccon3)CC2)c(Cl)n1 [Compound 27, 4-(2-((3-Chloro-1-methyl-1H-pyrazol-4-yl)sulfonyl)propan-2-yl)-N-(isoxazol-3-yl)piperidine-1-carboxamide] | + (+ represents myosin activation value AC20 > 5 μM) |
| CC(F)(C1CCN(C(=O)Nc2cnns2)CC1)S(=O)(=O)c1ccc(C#N)cc1 (stereo not drawn) [Compound 274, 4-(1-((4-cyanophenyl)sulfonyl)-1-fluoroethyl)-N-(1,2,3-thiadiazol-5-yl)piperidine-1-carboxamide] | +++ (+++ represents myosin activation value AC20 < 2 μM) |
| Cc1cnccc1NC(=O)N1CCC(C(C)(C)S(=O)(=O)c2cccc(F)c2)CC1 [Compound 214, 4-(2-((3-fluorophenyl)sulfonyl)propan-2-yl)-N-(3-methylpyridin-4-yl)piperidine-1-carboxamide] | + (+ represents myosin activation value AC20 > 5 μM) |
| Cn1nccc1S(=O)(=O)C(C)(F)C1CCN(C(=O)Nc2ccc(F)nc2)CC1 (stereo not drawn) [Compound 228, 4-(1-fluoro-1-((1-methyl-1H-pyrazol-5-yl)sulfonyl)ethyl)-N-(6-fluoropyridin-3-yl)piperidine-1-carboxamide] | ++ (++ represents myosin activation value AC20 from 2 μM-5 μM) |
| O=C(Nc1ccncc1)N1CCC(C2(S(=O)(=O)c3cccc(F)c3)CCC2)CC1 [Compound 42, 4-(1-((3-fluorophenyl)sulfonyl)cyclobutyl)-N-(pyridin-4-yl)piperidine-1-carboxamide] | +++ (+++ represents myosin activation value AC20 < 2 μM) |
| CC(F)(C1CCN(C(=O)Nc2ccnnc2)CC1)S(=O)(=O)c1ccc(C(F)(F)F)nc1 (stereo not drawn) [Compound 262, 4-(1-fluoro-1-((6-(trifluoromethyl)pyridin-3-yl)sulfonyl)ethyl)-N-(pyridazin-4-yl)piperidine-1-carboxamide] | +++ (+++ represents myosin activation value AC20 < 2 μM) |
| C[C@@H](O)c1cc(NC(=O)N2CCC([C@@](C)(F)S(=O)(=O)c3cn(C)nc3C(F)F)CC2)ccn1 [Compound 304, 4-((S)-1-((3-(difluoromethyl)-1-methyl-1H-pyrazol-4-yl)sulfonyl)-1-fluoroethyl)-N-(2-((R)-1-hydroxyethyl)pyridin-4-yl)piperidine-1-carboxamide] | + (+ represents myosin activation value AC20 > 5 μM) |
| CC(C)(C1CCN(C(=O)Nc2ccc(Cl)nc2)CC1)S(=O)(=O)c1cccc(F)c1 [Compound 159, N-(6-chloropyridin-3-yl)-4-(2-((3-fluorophenyl)sulfonyl)propan-2-yl)piperidine-1-carboxamide] | ++ (++ represents myosin activation value AC20 from 2 μM-5 μM) |
| CC(C)(C1CCN(C(=O)Nc2ccnnc2)CC1)S(=O)(=O)c1ccc(C(F)(F)F)cc1 [Compound 181, N-(pyridazin-4-yl)-4-(2-((4-(trifluoromethyl)phenyl)sulfonyl)propan-2-yl)piperidine-1-carboxamide] | ++ (++ represents myosin activation value AC20 from 2 μM-5 μM) |
